The target of test [1] is T1, Serine/threonine-protein kinase 17A (Homo sapiens) (UniProt Q9UEE5).
T1 sequence (whole entry): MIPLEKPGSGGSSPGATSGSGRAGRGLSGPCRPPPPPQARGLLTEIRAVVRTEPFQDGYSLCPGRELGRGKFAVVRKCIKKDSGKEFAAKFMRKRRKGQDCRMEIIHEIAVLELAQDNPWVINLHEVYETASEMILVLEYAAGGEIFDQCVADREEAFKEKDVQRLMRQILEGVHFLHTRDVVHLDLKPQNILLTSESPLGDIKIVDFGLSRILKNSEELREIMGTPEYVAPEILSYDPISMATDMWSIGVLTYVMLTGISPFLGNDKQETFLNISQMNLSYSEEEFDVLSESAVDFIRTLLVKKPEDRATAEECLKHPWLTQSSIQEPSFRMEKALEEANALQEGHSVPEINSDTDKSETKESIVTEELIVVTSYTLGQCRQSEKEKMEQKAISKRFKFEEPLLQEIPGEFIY
The test is described as follows: Selectivity interaction (KinomeScan (DiscoverX)) EUB0000607a STK17A. As to conditions: at 10 µM.

Test [2] deals with Serine/threonine-protein kinase B-raf (Homo sapiens) (UniProt P15056). The test is described as follows: Selectivity interaction (Kinase panel (Invitrogen)) EUB0000639a BRAF. As to conditions: at 200 nM.
Test [3] concerns the target T2, Serine/threonine-protein kinase tousled-like 1 (Homo sapiens) (UniProt Q9UKI8).
T2 sequence (whole entry): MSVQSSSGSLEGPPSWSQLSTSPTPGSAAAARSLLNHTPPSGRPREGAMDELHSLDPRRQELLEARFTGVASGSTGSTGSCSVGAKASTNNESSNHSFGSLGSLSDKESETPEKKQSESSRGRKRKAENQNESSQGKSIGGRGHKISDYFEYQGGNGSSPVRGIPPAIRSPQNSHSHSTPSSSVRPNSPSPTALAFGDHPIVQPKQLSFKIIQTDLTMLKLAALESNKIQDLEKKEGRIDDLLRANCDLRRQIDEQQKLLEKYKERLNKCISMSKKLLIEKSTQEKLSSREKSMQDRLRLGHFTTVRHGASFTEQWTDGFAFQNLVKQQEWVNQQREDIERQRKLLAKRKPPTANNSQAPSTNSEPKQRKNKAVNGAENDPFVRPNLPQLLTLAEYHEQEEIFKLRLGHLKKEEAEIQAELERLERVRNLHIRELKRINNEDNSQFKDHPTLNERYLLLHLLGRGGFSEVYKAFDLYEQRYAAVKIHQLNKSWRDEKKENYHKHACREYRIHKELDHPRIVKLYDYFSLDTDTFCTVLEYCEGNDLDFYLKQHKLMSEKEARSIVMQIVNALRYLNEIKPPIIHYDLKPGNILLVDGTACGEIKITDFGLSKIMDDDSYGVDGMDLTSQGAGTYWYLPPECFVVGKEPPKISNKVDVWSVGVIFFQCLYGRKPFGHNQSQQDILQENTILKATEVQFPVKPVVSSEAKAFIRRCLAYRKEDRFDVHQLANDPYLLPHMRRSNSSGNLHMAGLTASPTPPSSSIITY
The test is described as follows: Selectivity interaction (ProQinase) EUB0000171b TLK1.

Test [4] deals with T3, Serine/threonine-protein kinase PLK4 (Homo sapiens) (UniProt O00444).
T3 sequence (whole entry): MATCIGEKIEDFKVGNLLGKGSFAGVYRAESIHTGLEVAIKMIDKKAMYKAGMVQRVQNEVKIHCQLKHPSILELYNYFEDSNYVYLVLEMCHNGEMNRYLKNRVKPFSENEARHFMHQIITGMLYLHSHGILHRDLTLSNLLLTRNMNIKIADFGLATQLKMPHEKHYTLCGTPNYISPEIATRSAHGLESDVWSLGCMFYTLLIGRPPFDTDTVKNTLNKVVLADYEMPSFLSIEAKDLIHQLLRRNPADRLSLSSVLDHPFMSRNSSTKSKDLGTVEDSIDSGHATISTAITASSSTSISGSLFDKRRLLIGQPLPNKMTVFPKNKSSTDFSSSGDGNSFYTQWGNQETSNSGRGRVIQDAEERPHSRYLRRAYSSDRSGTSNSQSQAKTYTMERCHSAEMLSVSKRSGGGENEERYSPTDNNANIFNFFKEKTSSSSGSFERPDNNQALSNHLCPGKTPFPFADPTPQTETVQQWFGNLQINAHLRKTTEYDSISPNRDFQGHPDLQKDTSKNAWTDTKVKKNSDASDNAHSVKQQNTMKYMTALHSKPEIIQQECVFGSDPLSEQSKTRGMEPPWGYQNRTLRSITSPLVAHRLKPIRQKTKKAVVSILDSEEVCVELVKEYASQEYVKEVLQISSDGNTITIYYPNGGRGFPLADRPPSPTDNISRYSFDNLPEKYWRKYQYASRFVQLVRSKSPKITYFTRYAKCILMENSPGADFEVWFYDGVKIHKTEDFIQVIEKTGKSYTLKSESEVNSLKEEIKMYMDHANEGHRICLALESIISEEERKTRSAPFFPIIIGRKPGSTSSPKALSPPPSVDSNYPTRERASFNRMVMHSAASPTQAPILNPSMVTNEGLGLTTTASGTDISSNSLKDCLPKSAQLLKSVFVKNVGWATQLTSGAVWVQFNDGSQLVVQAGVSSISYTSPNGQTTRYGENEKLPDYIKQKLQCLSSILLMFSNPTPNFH
The test is described as follows: Selectivity interaction (ProQinase) EUB0000171b PLK4.

Our source for the % of control and % of inhibition values is ChEMBL document CHEMBL5465560, “Selectivity Literature for EUbOPEN Chemogenomic Library” (2024).

Chain of Serine/threonine-protein kinase B-raf (Homo sapiens) (P15056 whole entry): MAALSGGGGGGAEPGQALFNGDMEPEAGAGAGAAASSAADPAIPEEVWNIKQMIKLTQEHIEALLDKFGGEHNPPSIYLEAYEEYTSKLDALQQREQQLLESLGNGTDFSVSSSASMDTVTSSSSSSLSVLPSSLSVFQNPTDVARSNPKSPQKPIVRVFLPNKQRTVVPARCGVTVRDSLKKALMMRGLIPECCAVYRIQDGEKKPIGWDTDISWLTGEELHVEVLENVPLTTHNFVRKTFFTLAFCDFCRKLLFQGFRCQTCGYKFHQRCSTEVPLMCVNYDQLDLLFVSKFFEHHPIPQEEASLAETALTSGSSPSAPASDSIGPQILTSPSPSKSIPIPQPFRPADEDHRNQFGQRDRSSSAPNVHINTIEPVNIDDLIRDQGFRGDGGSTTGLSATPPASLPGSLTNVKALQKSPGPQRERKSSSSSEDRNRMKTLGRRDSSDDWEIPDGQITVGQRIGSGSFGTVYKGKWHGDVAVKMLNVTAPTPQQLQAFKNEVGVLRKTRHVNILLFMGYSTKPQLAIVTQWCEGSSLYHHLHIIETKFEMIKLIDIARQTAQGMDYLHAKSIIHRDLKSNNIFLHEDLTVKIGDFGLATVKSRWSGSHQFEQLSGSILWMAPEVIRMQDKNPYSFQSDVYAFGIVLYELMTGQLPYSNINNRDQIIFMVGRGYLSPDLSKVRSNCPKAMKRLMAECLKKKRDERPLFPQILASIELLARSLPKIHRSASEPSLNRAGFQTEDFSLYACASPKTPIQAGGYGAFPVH

Compound `CNC(=O)Nc1ccc(-c2nc(N3CC4CCC(C3)O4)c3cnn(C4CCC5(CC4)OCCO5)c3n2)cc1` had a % of control in test [1] of 100%.

In test [2], `CC[C@@H]1[C@H](F)C(=O)N[C@@H]1COc1nccc2cc(C(N)=O)c(OC)cc12` [ZIMLOVISERTIB] came in with a % of inhibition of 2.21%.

On to `C=CC(=O)Nc1cccc(C(=O)Nc2ccc(Nc3cc(-c4[nH]c(SC)nc4C)ccn3)cc2)c1`, for which the % of control came out at 97% in test [3] (at 1 µM), 90% in test [3] (at 5 µM), 77% in test [4] (at 1 µM) and 57% in test [4] (at 5 µM).
